Measured values: patent US20190255091A1, “RNAi AGENTS FOR [sequence] B VIRUS INFECTION” (priority 2016, published 2019)

Tests used:
Hepatitis B Virus (HBV) [1] = assay: Serum HBsAg levels in pHBV model mice (ELISA); format: in vivo; design: key to Average HBsAg levels normalized to pre-treatment (day −1) and PBS control / Average HBsAg levels normalized to pre-treatment and PBS control: fraction of pre-treatment level, relative to PBS control mean; details: for Average HBsAg levels normalized to pre-treatment (day −1) and PBS control: single s.c. injection day 1, Example 7; for Average HBsAg normalized to pre-treatment and PBS control: single s.c. injection on day 1; for Average HBsAg levels normalized to pre-treatment and PBS control (Group A used as control): 3.0 mg/kg, s.c. injection on day 1 and day 22, Example 10
Source text: (§1) Six to eight-week-old female NOD.CB17-Prkdscid/NcrCrl (NOD-SCID) mice were transiently transfected in vivo with MC-HBV1.3 by hydrodynamic tail vein injection (Yang P L et al. “Hydrodynamic injection of viral DNA: a mouse model of acute hepatitis B virus infection,” PNAS USA 2002 Vol. 99: p. 13825-13830), administered 30 to 45 days prior to administration of an HBV RNAi agent or control. MC-HBV1.3 is a plasmid-derived minicircle that contains the same terminally redundant human hepatitis B virus sequence HBV1.3 as in plasmid pHBV1.3 and in the HBV1.3.32 transgenic mice (GenBank accession #V01460) (Guidotti L G et al., “High-level hepatitis B virus replication in transgenic mice,” J Virol 1995 Vol. 69, p 6158-6169.). 5 or 10 μg MC-HBV1.3 in Ringer's Solution in a total volume of 10% of the animal's body weight was injected into mice via tail vein to create pHBV model of chronic HBV infection. The solution was injected through a 27-gauge needle in 5-7 seconds as previously described (Zhang G et al., “High levels of foreign gene expression in hepatocytes after tail vein injection of naked plasmid DNA.” Human Gene Therapy 1999 Vol. 10, p 1735-1737.). At pre-dose (either day 1 pre-dose, day −1, or day −2), Hepatitis B surface antigen (HBsAg) HBsAg expression levels in serum were measured by ELISA and the mice were grouped according to average HBsAg expression levels.
(§2) HBV expression levels were normalized to pre-administration expression levels and to control mice injected with phosphate buffered saline (“PBS”).
Mice were anesthetized with 2-3% isoflurane and blood samples were collected from the submandibular area into serum separation tubes (Sarstedt AG & Co., Nümbrecht, Germany). Blood was allowed to coagulate at ambient temperature for 20 min. The tubes were centrifuged at 8,000×g for 3 min to separate the serum and stored at 4° C.
Serum was collected and diluted 10 to 8000-fold in PBS containing 5% nonfat dry milk. […] HBsAg levels were determined with a GS HBsAg EIA 3.0 kit (Bio-Rad Laboratories, Inc., Redmond, Wash.) as described by the manufacturer. Recombinant HBsAg protein, ayw subtype, also diluted in nonfat milk in PBS, was used as a primary standard (Aldevron).
HBsAg expression for each animal was normalized to the control group of mice injected with PBS in order to account for the non-treatment related decline in expression of MC-HBV1.3. First, the HBsAg level for each animal at a time point was divided by the pre-treatment level of expression in that animal in order to determine the ratio of expression “normalized to pre-treatment”. Expression at a specific time point was then normalized to the control group by dividing the “normalized to pre-treatment” ratio for an individual animal by the average “normalized to pre-treatment” ratio of all mice in the normal PBS control group.

Hepatitis B Virus (HBV) [2] = assay: Serum HBV DNA levels in pHBV model mice (qPCR); format: in vivo; details: single s.c. injection day 1, Example 7
Source text: as §1, §2
Equal volumes of serum from mice in a group or subgroup were pooled to a final volume of 100 μL. DNA was isolated from serum samples using the QIAamp MinElute Virus Spin Kit (Qiagen, Valencia, Calif.) following the manufacturer's instructions. Sterile 0.9% saline was added to each sample to a final volume of 200 μL. Serum samples were added to tubes containing buffer and protease. Carrier RNA was added to aid in the isolation of small amounts of DNA. […] After incubating 15 min at 56° C., nucleic acids were precipitated from the lysates with ethanol and the entire solution applied to a column. After washing, the samples were eluted into a volume of 50 μL Buffer AVE.
The number of copies of HBV genomes in DNA isolated from the pHBV mouse model serum was determined by qPCR. Plasmid pSEAP-HBV353-777, encoding a short segment of the HBV genome within the S gene (bases 353-777 of GenBank accession #V01460), was used to create a six log standard curve. Samples with recovery of DNA below 2 standard deviations from the average, based on detection of pHCR/UbC-SEAP were omitted. TaqMan chemistry-based primers and probes with fluor/ZEN/IBFQ are utilized.
qPCR assays were performed on a 7500 Fast or StepOne Plus Real-Time PCR system (Life Technologies). For evaluation of HBV DNA in serum, DNA was isolated from singlet or duplicate purification steps from pooled group serum samples. Quantitations of HBV DNA and recovery control plasmid were determined by qPCR reactions performed in triplicate. The probes to quantitate HBV and pHCR/UbC-SEAP were included in each reaction.

Substance: AD04776: HBV RNAi agent duplex AM05850-AS/AM06150-SS (antisense UACCAAUUUAUGCCUACAGCC; sense GGCUGUAGGCAUAAAUUGGUA; chemistry not fully specified)
- Average HBsAg levels normalized to pre-treatment (day −1) and PBS control (Hepatitis B Virus (HBV) [1]; Day 8, 1.0 mg/kg): 0.279 ± 0.057
- Average HBsAg levels normalized to pre-treatment (day −1) and PBS control (Hepatitis B Virus (HBV) [1]; Day 8, 2.0 mg/kg): 0.224 ± 0.018
- Average HBsAg normalized to pre-treatment and PBS control (Hepatitis B Virus (HBV) [1]; Day 8, 2.0 mg/kg, Example 15): 0.339 ± 0.076
- Average HBsAg levels normalized to pre-treatment and PBS control (Group A used as control) (Hepatitis B Virus (HBV) [1]; Day 8): 0.197 ± 0.081
- Average HBsAg levels normalized to pre-treatment (day −1) and PBS control (Hepatitis B Virus (HBV) [1]; Day 8, 4.0 mg/kg): 0.117 ± 0.069
- Average HBsAg levels normalized to pre-treatment (day −1) and PBS control (Hepatitis B Virus (HBV) [1]; Day 15, 1.0 mg/kg): 0.245 ± 0.032
- Average HBsAg levels normalized to pre-treatment (day −1) and PBS control (Hepatitis B Virus (HBV) [1]; Day 15, 2.0 mg/kg): 0.161 ± 0.009
- Average HBsAg normalized to pre-treatment and PBS control (Hepatitis B Virus (HBV) [1]; Day 15, 2.0 mg/kg, Example 15): 0.414 ± 0.126
- Average HBsAg levels normalized to pre-treatment and PBS control (Group A used as control) (Hepatitis B Virus (HBV) [1]; Day 15): 0.308 ± 0.138
- Average HBsAg levels normalized to pre-treatment (day −1) and PBS control (Hepatitis B Virus (HBV) [1]; Day 15, 4.0 mg/kg): 0.085 ± 0.039
- Average HBsAg levels normalized to pre-treatment (day −1) and PBS control (Hepatitis B Virus (HBV) [1]; Day 22, 1.0 mg/kg): 0.374 ± 0.121
- Average HBsAg levels normalized to pre-treatment (day −1) and PBS control (Hepatitis B Virus (HBV) [1]; Day 22, 2.0 mg/kg): 0.310 ± 0.016
- Average HBsAg normalized to pre-treatment and PBS control (Hepatitis B Virus (HBV) [1]; Day 22, 2.0 mg/kg, Example 15): 0.385 ± 0.067
- Average HBsAg levels normalized to pre-treatment and PBS control (Group A used as control) (Hepatitis B Virus (HBV) [1]; Day 22): 0.476 ± 0.156
- Average HBsAg levels normalized to pre-treatment (day −1) and PBS control (Hepatitis B Virus (HBV) [1]; Day 22, 4.0 mg/kg): 0.148 ± 0.045
- Average HBsAg levels normalized to pre-treatment (day −1) and PBS control (Hepatitis B Virus (HBV) [1]; Day 29, 1.0 mg/kg): 0.304
- Average HBsAg levels normalized to pre-treatment (day −1) and PBS control (Hepatitis B Virus (HBV) [1]; Day 29, 2.0 mg/kg): 0.482
- Average HBsAg normalized to pre-treatment and PBS control (Hepatitis B Virus (HBV) [1]; Day 29, 2.0 mg/kg, Example 15): 0.450 ± 0.075
- Average HBsAg levels normalized to pre-treatment and PBS control (Group A used as control) (Hepatitis B Virus (HBV) [1]; Day 29): 0.246 ± 0.081
- Average HBsAg levels normalized to pre-treatment (day −1) and PBS control (Hepatitis B Virus (HBV) [1]; Day 29, 4.0 mg/kg): 0.198
- Average HBsAg normalized to pre-treatment and PBS control (Hepatitis B Virus (HBV) [1]; Day 36, 2.0 mg/kg, Example 15): 0.617 ± 0.116
- Average HBsAg levels normalized to pre-treatment and PBS control (Group A used as control) (Hepatitis B Virus (HBV) [1]; Day 36): 0.244 ± 0.097
- Average HBsAg normalized to pre-treatment and PBS control (Hepatitis B Virus (HBV) [1]; Day 43, 2.0 mg/kg, Example 15): 0.643 ± 0.154
- Average HBsAg levels normalized to pre-treatment and PBS control (Group A used as control) (Hepatitis B Virus (HBV) [1]; Day 43): 0.179 ± 0.061
- Average HBsAg normalized to pre-treatment and PBS control (Hepatitis B Virus (HBV) [1]; Day 50, 2.0 mg/kg, Example 15): 0.665 ± 0.199
- knockdown of HBsAg compared to PBS control (Hepatitis B Virus (HBV) [1]; Example 15, administered alone or in combination with AD04872, across each of the time points measured): significant knockdown of HBsAg
- Average Serum HBV DNA levels normalized to pre-treatment and PBS control (Hepatitis B Virus (HBV) [2]; Day 8, 1.0 mg/kg): 0.601 ± 0.388
- Average Serum HBV DNA levels normalized to pre-treatment and PBS control (Hepatitis B Virus (HBV) [2]; Day 8, 2.0 mg/kg): 0.363 ± 0.128
- Average Serum HBV DNA levels normalized to pre-treatment and PBS control (Hepatitis B Virus (HBV) [2]; Day 8, 4.0 mg/kg): 0.224 ± 0.150
- Average Serum HBV DNA levels normalized to pre-treatment and PBS control (Hepatitis B Virus (HBV) [2]; Day 15, 1.0 mg/kg): 0.319 ± 0.125
- Average Serum HBV DNA levels normalized to pre-treatment and PBS control (Hepatitis B Virus (HBV) [2]; Day 15, 2.0 mg/kg): 0.374 ± 0.197
- Average Serum HBV DNA levels normalized to pre-treatment and PBS control (Hepatitis B Virus (HBV) [2]; Day 15, 4.0 mg/kg): 0.263 ± 0.185
- Average Serum HBV DNA levels normalized to pre-treatment and PBS control (Hepatitis B Virus (HBV) [2]; Day 22, 1.0 mg/kg): 0.279 ± 0.138
- Average Serum HBV DNA levels normalized to pre-treatment and PBS control (Hepatitis B Virus (HBV) [2]; Day 22, 2.0 mg/kg): 0.275 ± 0.146
- Average Serum HBV DNA levels normalized to pre-treatment and PBS control (Hepatitis B Virus (HBV) [2]; Day 22, 4.0 mg/kg): 0.335 ± 0.204
- Average Serum HBV DNA levels normalized to pre-treatment and PBS control (Hepatitis B Virus (HBV) [2]; Day 29, 1.0 mg/kg): 0.506 ± 0.525
- Average Serum HBV DNA levels normalized to pre-treatment and PBS control (Hepatitis B Virus (HBV) [2]; Day 29, 2.0 mg/kg): 0.385 ± 0.141
- Average Serum HBV DNA levels normalized to pre-treatment and PBS control (Hepatitis B Virus (HBV) [2]; Day 29, 4.0 mg/kg): 0.449 ± 0.108
- Average Serum HBV DNA levels normalized to pre-treatment and PBS control (Hepatitis B Virus (HBV) [2]; Day 36, 1.0 mg/kg): 0.444 ± 0.407
- Average Serum HBV DNA levels normalized to pre-treatment and PBS control (Hepatitis B Virus (HBV) [2]; Day 36, 2.0 mg/kg): 0.721 ± 0.043
- Average Serum HBV DNA levels normalized to pre-treatment and PBS control (Hepatitis B Virus (HBV) [2]; Day 36, 4.0 mg/kg): 0.603 ± 0.068
